Patent US20160151275A1, “METHOD AND DEVICES FOR MANUFACTURING AND DELIVERING OF AEROSOLIZED FORMULATIONS” (priority 2014, published 2016)
Where two headings read alike, the source gives them in different places.

Settings: human

- bioavailability: ~10%
- bioavailability (inhaled or intranasal): 80 to 90%
SMILES: Cn1c(=O)c2c(ncn2C)n(C)c1=O [caffeine]
